Reference: patent US8828983B2, “Macrocycles as factor XIa inhibitors” (Bristol-Myers Squibb Company, priority 2010, dated 2014)
Like-named read-outs stand apart in the source and are kept apart here.

What was measured:
[1] = molecular target: purified human Factor XIa (Homo sapiens (Human), UniProt P03951); assay: Factor XIa assay (chromogenic substrate S-2366 hydrolysis, Ki); format: biochemical; settings: substrate S-2366, pH 7.4
Experimental: The effectiveness of compounds of the present invention as inhibitors of the coagulation Factors XIa, VIIa, IXa, Xa, XIIa, plasma kallikrein or thrombin, can be determined using a relevant purified serine protease, respectively, and an appropriate synthetic substrate. The rate of hydrolysis of the chromogenic or fluorogenic substrate by the relevant serine protease was measured both in the absence and presence of compounds of the present invention. […] A decrease in the rate of absorbance or fluorescence change in the presence of inhibitor is indicative of enzyme inhibition. Such methods are known to one skilled in the art. The results of this assay are expressed as the inhibitory constant, Ki.
Factor XIa determinations were made in 50 mM HEPES buffer at pH 7.4 containing 145 mM NaCl, 5 mM KCl, and 0.1% PEG 8000 (polyethylene glycol; JT Baker or Fisher Scientific). Determinations were made using purified human Factor XIa at a final concentration of 25-200 pM (Haematologic Technologies) and the synthetic substrate S-2366 (pyroGlu-Pro-Arg-pNA; CHROMOGENIX® or AnaSpec) at a concentration of 0.0002-0.001 M.
Values of Ki were determined by allowing the protease to react with the substrate in the presence of the inhibitor. Reactions were allowed to go for periods of 20-180 minutes (depending on the protease) and the velocities (rate of absorbance or fluorescence change versus time) were measured. The following relationships were used to calculate Ki values: (vo−vs)/vs=I/(Ki(1+S/Km)) for a competitive inhibitor with one binding site; or vs/vo=A+((B−A)/1+((IC50/(I)0))); and Ki=IC50/(1+S/Km) for a competitive inhibitor where: […]

Sequence of purified human Factor XIa (P03951 388-625): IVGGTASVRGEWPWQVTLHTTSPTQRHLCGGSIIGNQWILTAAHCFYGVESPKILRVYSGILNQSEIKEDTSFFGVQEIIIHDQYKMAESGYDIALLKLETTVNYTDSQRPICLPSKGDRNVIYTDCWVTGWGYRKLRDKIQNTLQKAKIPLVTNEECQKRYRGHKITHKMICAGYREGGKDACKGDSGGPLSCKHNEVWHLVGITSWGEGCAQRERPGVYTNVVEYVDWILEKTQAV
Sequence of purified human Factor XIa (P03951 19-387 partner): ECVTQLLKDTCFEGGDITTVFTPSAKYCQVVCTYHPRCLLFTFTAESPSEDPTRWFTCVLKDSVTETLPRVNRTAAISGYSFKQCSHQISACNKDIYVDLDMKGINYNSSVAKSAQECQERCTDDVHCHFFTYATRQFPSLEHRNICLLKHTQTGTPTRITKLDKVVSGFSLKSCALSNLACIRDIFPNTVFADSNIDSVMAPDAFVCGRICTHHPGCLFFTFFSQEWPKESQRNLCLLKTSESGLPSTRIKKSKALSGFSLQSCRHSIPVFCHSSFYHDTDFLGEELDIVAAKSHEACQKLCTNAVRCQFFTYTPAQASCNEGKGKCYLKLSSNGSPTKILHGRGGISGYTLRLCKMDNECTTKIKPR

Structure (SMILES) | Ki [1] [nM] | other results
COC(=O)Nc1ccc2c(c1)NC(=O)CCc1nc(ccc1F)CC(NC(=O)/C=C/c1cc(Cl)ccc1C(C)=O)c1nc-2c[nH]1 (centres unmarked) [Example 140, Methyl N-{3-[(2E)-3-(2-acetyl-5-chlorophenyl)prop-2-enamido]-19-fluoro-15-oxo-5,14,22,23-tetraazatetracyclo[16.3.1.1^4,7.0^8,13]tricosa-1(22),4(23),6,8,10,12,18,20-octaen-11-yl}carbamate] | < 5 | 
COC(=O)Nc1ccc2c(c1)NC(=O)CCCC[C@H](NC(=O)/C=C/c1cc(Cl)ccc1-n1cnnn1)c1nc-2c[nH]1 [Example 10, {(S)-14-[(E)-3-(5-Chloro-2-tetrazol-1-yl-phenyl)-acryloylamino]-9-oxo-8,16,18-triaza-tricyclo[13.2.1.0^2,7]octadeca-1(17),2,4,6,15(18)-pentaen-5-yl}-carbamic acid methyl ester] | < 5 | 
COC(=O)Nc1ccc2c(c1)NC(=O)CCc1nc(ccc1F)CC(NC(=O)/C=C/c1cc(Cl)ccc1-n1cnnn1)c1nc-2cn1C (centres unmarked) [III-33] | 103 | 
COC(=O)Nc1ccc2c(c1)NC[C@@H]1CCN(C1)C(=O)C[C@H](NC(=O)/C=C/c1cc(Cl)ccc1-n1cnnn1)c1nc-2c[nH]1 [Example 86] | 2390 | 
COC(=O)Nc1ccc2c(c1)CCCCc1ccc(cc1)C[C@H](NC(=O)/C=C/c1cc(Cl)ccc1-n1cnnn1)c1nc-2c[nH]1 [Example 111] | 71 | 
O=C(/C=C/c1cc(Cl)ccc1-n1cnnn1)N[C@H]1C/C=C/CCOc2ccccc2-c2c[nH]c1n2 [Example 1, (E)-3-(5-Chloro-2-tetrazol-1-yl-phenyl)-N-(E)-(S)-8-oxa-16,18-diaza-tricyclo[13.2.1.0^2,7]octadeca-1(17),2,4,6,11,15(18)-hexaen-14-yl-acrylamide] | 2980 | 
COC(=O)Nc1ccc2c(c1)NC(=O)CCc1nc(ccc1F)CC(NC(=O)[C@H]1CC[C@H](C)CC1)c1nc-2c[nH]1 (some centres unmarked) [Example 143, Methyl N-{19-fluoro-3-[(4-methylcyclohexane)amido]-15-oxo-5,14,22,23-tetraazatetracyclo[16.3.1.1^4,7.0^8,13]tricosa-1(22),4(23),6,8,10,12,18,20-octaen-11-yl}carbamate] | 1310 | 
CC(C)(C)OC(=O)N[C@H]1CC=CCCCc2ccccc2-c2cn(COCC[Si](C)(C)C)c1n2 |  | ring closure, isolated yield (from C=CCCCc1ccccc1-c1cn(COCC[Si](C)(C)C)c([C@H](CC=C)NC(=O)OC(C)(C)C)n1, rcm bond, 12-membered ring, Grubbs II (0.4 eq)/pTsOH.H2O, DCM, 0.97 mM, 40.0 °C): 45.3%
COC(=O)Nc1ccc2c(c1)NC(=O)CCc1nc(ccc1F)CC(NC(=O)c1c(F)cc(C)cc1F)c1nc-2c[nH]1 (centres unmarked) [Example 142, Methyl N-{3-[(2,6-difluoro-4-methylbenzene)amido]-19-fluoro-15-oxo-5,14,22,23-tetraazatetracyclo[16.3.1.1^4,7.0^8,13]tricosa-1(22),4(23),6,8,10,12,18,20-octaen-11-yl}carbamate] | 145 | 
COC(=O)Nc1ccc2c(c1)CCCCc1cccc(c1)C[C@H](NC(=O)/C=C/c1cc(Cl)ccc1-n1cnnn1)c1nc-2c(Cl)[nH]1 [Example 102] | 8.16 | 
COC(=O)Nc1ccc2c(c1)NC(=O)CCc1nc(ccc1F)CC(NC(=O)OC(C)(C)C)C1=NC=C2O1 (centres unmarked) |  | ring closure, isolated yield (from COC(=O)Nc1ccc(-c2cnc(C(Cc3ccc(F)c(CCC(=O)O)n3)NC(=O)OC(C)(C)C)o2)c(N)c1, amide bond, 14-membered ring, BOP/DMAP/DIEA, DCM/DMF, 1.1 mM, 25.0 °C, 16.0 h): 23%
